The text below walks through data of patent US20240101589A1, “INHIBITORS OF METTL3” (Strom Therapeutics Limited, priority 2020, published 2024).

One assay has as its system Caov-3 cells. The assay can be described thus: Caov3 cell proliferation CTG. In kind it is cell-based. Particulars: Homo sapiens, treated for 120 hours, CellTiter-Glo. The protocol: Cell treatment and cell growth assessment: 18 hours post-seeding in white 384-Viewplate (6007480, PerkinElmer) at 1500 cells/well, Caov3 cells were treated for 120 hours with compounds inhibiting the METTL3/14 activity (10 serial semi-log dilutions, 30 μM as top concentration). Upon treatment, Coav-3 cells were incubated for 10 min at RT with the CellTiter-Glo reagent (G7571, Promega). Measurement of the luminescence signal was performed on a microplate reader (Ensight, PerkinElmer).

The target in another assay is METTL3/14 (Homo sapiens (Human), UniProt Q86U44). As to the kind of experiment: METTL3/14 methyltransferase assay (RapidFire mass spectrometry, RFMS). The format is biochemical. As to conditions: 5 nM METTL3/14, 0.2 μM RNA substrate, 0.5 μM SAM, 60 minutes at room temperature. The protocol:
The enzymatic assay was established to determine IC50 values for inhibition of RNA methyltransferase activity. The enzyme used was full-length his-tagged METTL3 co-expressed with full length FLAG-tagged METTL14 in a baculovirus expression system. Enzymatic reactions were performed at room temperature in 384-well plates using a final reaction volume of 20 μL containing 20 mM TrisCl pH 7.6, 1 mM DTT, 0.01% Tween-20. 5 nM final concentration of METTL3/14 was pre-incubated with various compound concentrations for 10 minutes, followed by addition of 0.2 μM final concentration synthetic RNA substrate (5′P-[…]-3′) and 0.5 μM final concentration S-adenosyl-methionine (SAM). The reaction was incubated for a further 60 minutes at room temperature, and then quenched by the addition of 40 μL 7.5% TCA with two internal product standards (D4-SAH and 13C10-SAH). After termination, plates were sealed, centrifuged and stored at 4° C. until analysis.
RNA methyltransferase activity was measured label free using the RapidFire™ mass spectrometry (RF/MS) platform. Stopped and stable assay plates were analyzed on the Agilent RF300 integrated autosampler/solid-phase extraction (SPE) system coupled to an ABSciex 4000 mass spectrometer for the generation of the product S-adenosyl homocysteine (SAH) and normalized to the ratio of signal of the two internal product standards, respectively. Solvent A was water containing 0.1% (v/v) TCA. Solvent B was acetonitrile/0.1% ammonium acetate (8:2, v/v). More specifically, plates were centrifuged at 4350 rpm for 10 min, samples were aspirated under vacuum for 600 ms, then loaded onto a C18 solid-phase extraction cartridge and washed for 3 s with solvent A at a flow rate of 1.5 mL/min. Retained product and internal standards were eluted with solvent B at a flow rate of 1 mL/min for 3 s and finally the cartridge was re-equilibrated with solvent A for 500 ms. The mass transition for the product (SAH) was 384.9/135.9 Da. Transitions of the two internal product standards (IS1: D4-SAH and IS2: 13C10-SAH) were 389.1/135.8 Da and 395.0/134.2 Da, respectively. Ratios of SAH/IS1 and SAH/IS2 were used for normalization of matrix effects. IC50 values were calculated based on dilution series of individual compounds. Potency of a compound was measured at varied inhibitor concentrations and normalized to control wells without RNA substrate and without inhibition (DMSO only).

A further assay has as its system KASUMI-1 cells. The assay can be described thus: Kasumi cell proliferation CTG. As to conditions: treated for 120 hours, CellTiter-Glo. In kind it is cell-based. The protocol:
Cell culture: KASUMI-1 cells (ACC20, Leibniz-Institut DSMZ Deutsche Sammlung von Mikroorganismen und Zellkulturen GmbH) were grown in RPMI 1640 (31870-025, Gibco) supplemented with 20% fetal bovine serum (F1524, Gibco), 1 mM sodium pyruvate (11360-039, Gibco) and 2 mM Glutamax (35050-038, Gibco) in a 5% CO2 humidified incubator at 37° C.
Cell treatment and cell growth assessment: KASUMI-1 cells were seeded in ultra-low attachment 384-well culture plate (MS-9384WZ, SBio) at a final concentration of 250 000 cells/ml (35 μL/well) and treated for 120 hours with compounds inhibiting the METTL3/14 activity (10 serial semi-log dilutions, 30 μM as top concentration). Upon treatment, Kasumi1 cells were incubated for 10 min at RT with the CellTiter-Glo reagent (G7571, Promega). Measurement of the luminescence signal was performed on a microplate reader (Ensight, PerkinElmer).
(In general: ATP-based viability assays read luminescence as a measure of living cells.)

The structures appear in SMILES notation.

Sequence of METTL3/14 (Q86U44 whole entry): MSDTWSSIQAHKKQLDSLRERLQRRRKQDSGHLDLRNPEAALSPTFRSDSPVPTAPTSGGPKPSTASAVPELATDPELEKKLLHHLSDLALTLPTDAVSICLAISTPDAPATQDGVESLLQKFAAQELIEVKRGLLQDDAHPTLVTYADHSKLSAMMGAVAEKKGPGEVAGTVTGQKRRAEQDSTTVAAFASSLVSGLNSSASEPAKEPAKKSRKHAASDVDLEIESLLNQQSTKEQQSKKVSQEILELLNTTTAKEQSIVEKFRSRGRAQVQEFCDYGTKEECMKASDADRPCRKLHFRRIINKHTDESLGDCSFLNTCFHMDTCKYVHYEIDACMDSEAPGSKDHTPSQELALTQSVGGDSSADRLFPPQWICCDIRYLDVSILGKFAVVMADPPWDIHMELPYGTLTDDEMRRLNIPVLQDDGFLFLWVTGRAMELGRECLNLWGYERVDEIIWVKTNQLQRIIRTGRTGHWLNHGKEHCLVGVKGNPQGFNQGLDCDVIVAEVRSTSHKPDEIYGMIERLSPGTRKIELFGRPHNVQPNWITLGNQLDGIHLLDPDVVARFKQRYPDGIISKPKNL
Sequence of METTL3/14 (Q9HCE5 whole entry partner): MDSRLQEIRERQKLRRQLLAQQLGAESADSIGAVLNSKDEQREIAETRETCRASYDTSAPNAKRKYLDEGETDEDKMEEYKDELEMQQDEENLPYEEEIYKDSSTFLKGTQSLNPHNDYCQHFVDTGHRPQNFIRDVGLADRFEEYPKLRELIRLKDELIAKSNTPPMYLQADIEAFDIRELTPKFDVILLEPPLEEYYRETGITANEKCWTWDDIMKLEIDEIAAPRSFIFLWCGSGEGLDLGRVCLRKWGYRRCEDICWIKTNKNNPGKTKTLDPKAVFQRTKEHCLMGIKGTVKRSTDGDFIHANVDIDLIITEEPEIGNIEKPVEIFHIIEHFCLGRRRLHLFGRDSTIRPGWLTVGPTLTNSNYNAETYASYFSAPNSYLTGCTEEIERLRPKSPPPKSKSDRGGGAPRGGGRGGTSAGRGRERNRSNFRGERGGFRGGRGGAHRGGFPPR

Consider `Nc1ncnc2c1c(Br)cn2[C@@H]1O[C@H](/C=C/CCCNCC2CCC2)[C@@H](O)[C@H]1O` [Example 2, (2R,3R,4S,5R)-2-{4-amino-5-bromo-7H-pyrrolo[2,3-d]pyrimidin-7-yl}-5-[(1E)-5-[(cyclobutylmethyl)amino]pent-1-en-1-yl]oxolane-3,4-diol], for which the IC50 in the assay on Caov-3 cells was 3800 nM; against METTL3/14, 42.6 nM; in the assay on KASUMI-1 cells (Homo sapiens, Kasumi 1, 120 h) it was 7300 nM.
Take `Nc1ncnc2c1c(Br)cn2[C@@H]1O[C@H](/C=C/CCCNCc2ccccc2)[C@@H](O)[C@H]1O` [Example 5, (2R,3R,4S,5R)-2-{4-amino-5-bromo-7H-pyrrolo[2,3-d]pyrimidin-7-yl}-5-[(1E)-5-(benzylamino)pent-1-en-1-yl]oxolane-3,4-diol]: the IC50 amounted to 330 nM with Caov-3 cells, 196 nM against METTL3/14 and 360 nM in the assay with KASUMI-1 cells.
Regarding `Nc1ncnc2c1c(Br)cn2[C@@H]1O[C@H](/C=C/CCCNCC23CC(F)(C2)C3)[C@@H](O)[C@H]1O` [Example 6], the half-inhibitory concentration (IC50) in the assay on Caov-3 cells worked out at 400 nM; with KASUMI-1 cells (Homo sapiens, Kasumi 1, 120 h) it was 1600 nM.
For `Nc1ncnc2c1c(Br)cn2[C@@H]1O[C@H](CC/C=C/CNCc2ccccc2)[C@@H](O)[C@H]1O` [Example 9, (2R,3R,4S,5R)-2-(4-amino-5-bromo-7H-pyrrolo[2,3-d]pyrimidin-7-yl)-5-((E)-5-(benzylamino)pent-3-en-1-yl)tetrahydrofuran-3,4-diol], the 50% inhibitory concentration (IC50) in the assay with Caov-3 cells turned out to be 5700 nM; against METTL3/14, 123 nM; in the assay on KASUMI-1 cells (Homo sapiens, Kasumi 1, 120 h) it was 4600 nM.
The like results for `Nc1ncnc2c1c(Br)cn2[C@@H]1C[C@H](c2ccc(CNCC3CCC3)cc2)[C@@H](O)[C@H]1O` [Example 10, (1R,2S,3R,5R)-3-(4-amino-5-bromo-7H-pyrrolo[2,3-d]pyrimidin-7-yl)-5-(4-(((cyclobutylmethyl)amino)methyl)phenyl)cyclopentane-1,2-diol] were, in that order, 6500 nM, 150 nM and 4400 nM.
As for `Nc1ncnc2c1c(Br)cn2[C@@H]1C[C@H](c2ccc3cc(CNCC45CC(F)(C4)C5)[nH]c3c2)[C@@H](O)[C@H]1O` [Example 11, (1R,2S,3R,5R)-3-{4-amino-5-bromo-7H-pyrrolo[2,3-d]pyrimidin-7-yl}-5-(2-{[({3-fluorobicyclo[1.1.1]pentan-1-yl}methyl)amino]methyl}-1H-indol-6-yl)cyclopentane-1,2-diol], the half-inhibitory concentration (IC50) with Caov-3 cells is 250 nM; in the assay on KASUMI-1 cells (Homo sapiens, Kasumi 1, 120 h) it was 950 nM.
As for `Nc1ncnc2c1c(Br)cn2[C@@H]1C[C@H](c2ccc(CCNCC34CC(F)(C3)C4)cc2)[C@@H](O)[C@H]1O` [Example 12, (1R,2S,3R,5R)-3-{4-amino-5-bromo-7H-pyrrolo[2,3-d]pyrimidin-7-yl}-5-(4-{2-[({3-fluorobicyclo[1.1.1]pentan-1-yl}methyl)amino]ethyl}phenyl)cyclopentane-1,2-diol], the IC50 in the assay on Caov-3 cells stood at 8300 nM; on METTL3/14 it was 46.6 nM; in the assay on KASUMI-1 cells (Homo sapiens, Kasumi 1, 120 h), 4900 nM.
Take `Nc1ncnc2c1c(-c1cc[nH]n1)cn2[C@@H]1O[C@H](/C=C/CCCNCC23CC(F)(C2)C3)[C@@H](O)[C@H]1O` [Example 20, (2R,3R,4S,5R)-2-[4-amino-5-(1H-pyrazol-3-yl)-7H-pyrrolo[2,3-d]pyrimidin-7-yl]-5-[(1E)-5-[({3-fluorobicyclo[1.1.1]pentan-1-yl}methyl)amino]pent-1-en-1-yl]oxolane-3,4-diol]: the IC50 was 1690 nM with Caov-3 cells and 6.1 nM against METTL3/14.
For `Nc1ncnc2c1c(Br)cn2[C@@H]1O[C@H](/C=C/CCCN2CCC3(CCC3)C2)[C@@H](O)[C@H]1O` [Example 21], the IC50 in the assay with Caov-3 cells came to 4570 nM; at METTL3/14, 23.9 nM; with KASUMI-1 cells (Homo sapiens, Kasumi 1, 120 h) it was 4850 nM.
Take `Nc1ncnc2c1c(Br)cn2[C@H]1C[C@H](O)[C@@H](/C=C/CCCNCC23CC(F)(C2)C3)O1` [Example 22, (2R,3S,5R)-5-(4-amino-5-bromo-pyrrolo[2,3-d]pyrimidin-7-yl)-2-[(E)-5-[(3-fluoro-1-bicyclo[1.1.1]pentanyl)methylamino]pent-1-enyl]tetrahydrofuran-3-ol]: the concentration for half-maximal inhibition (IC50) came out at 2880 nM in the assay on Caov-3 cells; 12.8 nM against METTL3/14; 4280 nM with KASUMI-1 cells (Homo sapiens, Kasumi 1, 120 h).
The corresponding values for `Nc1ncnc2c1c(F)cn2[C@@H]1C[C@H](c2ccc3cc(CNCC45CC(F)(C4)C5)[nH]c3c2)[C@@H](O)[C@H]1O` [Example 29, (1R,2S,3R,5R)-3-{4-amino-5-fluoro-7H-pyrrolo[2,3-d]pyrimidin-7-yl}-5-(2-{[{{3-fluorobicyclo[1.1.1]pentan-1-yl}methyl)amino]methyl}-1H-indol-6-yl)cyclopentane-1,2-diol] are 1540 nM, 6.1 nM and 2850 nM.
Consider `Nc1ncnc2c1c(Cl)cn2[C@@H]1C[C@H](c2ccc3cc(CNCC45CC(F)(C4)C5)[nH]c3c2)[C@@H](O)[C@H]1O` [Example 30, (1R,2S,3R,5R)-3-{4-amino-5-chloro-7H-pyrrolo[2,3-d]pyrimidin-7-yl}-5-(2-{[({3-fluorobicyclo[1.1.1]pentan-1-yl}methyl)amino]methyl}-1H-indol-6-yl)cyclopentane-1,2-diol], for which the IC50 was determined as 556 nM with Caov-3 cells; 6.1 nM against METTL3/14; 1290 nM in the assay with KASUMI-1 cells (Homo sapiens, Kasumi 1, 120 h).
The like results for `Nc1ncnc2c1c(Br)cn2[C@@H]1C[C@H](c2ccc3[nH]c(CNCC45CC(F)(C4)C5)cc3c2)[C@@H](O)[C@H]1O` [Example 31, (1R,2S,3R,5R)-3-{4-amino-5-bromo-7H-pyrrolo[2,3-d]pyrimidin-7-yl}-5-(2-{[{{3-fluorobicyclo[1.1.1]pentan-1-yl}methyl)amino]methyl}-1H-indol-5-yl)cyclopentane-1,2-diol] were, in that order, 2650 nM, 8.24 nM and 1930 nM.
The like results for `Nc1ncnc2c1c(Br)cn2[C@@H]1C[C@H](c2ccc3cc(CN4CCC5(CCC5)C4)[nH]c3c2)[C@@H](O)[C@H]1O` [Example 32, (1R,2S,3R,5R)-3-{4-amino-5-bromo-7H-pyrrolo[2,3-d]pyrimidin-7-yl}-5-[2-({6-azaspiro[3.4]octan-6-yl}methyl)-1H-indol-6-yl]cyclopentane-1,2-diol] were, in that order, 551 nM, 6.1 nM and 1220 nM.
As for `Nc1ncnc2c1ccn2[C@@H]1C[C@H](c2ccc3cc(CN4CCC5(CCC5)C4)[nH]c3c2)[C@@H](O)[C@H]1O` [Example 33, (1R,2S,3R,5R)-3-{4-amino-7H-pyrrolo[2,3-d]pyrimidin-7-yl}-5-[2-({6-azaspiro[3.4]octan-6-yl}methyl)-1H-indol-6-yl]cyclopentane-1,2-diol], the IC50 was found to be 276 nM with Caov-3 cells; 6.22 nM against METTL3/14; 1390 nM in the assay with KASUMI-1 cells (Homo sapiens, Kasumi 1, 120 h).
Take `Nc1ncnc2c1c(Br)cn2[C@@H]1C[C@H](c2ccc(CNCC34CC(F)(C3)C4)cc2)[C@@H](O)[C@H]1O` [Example 34, (1R,2S,3R,5R)-3-{4-amino-5-bromo-7H-pyrrolo[2,3-d]pyrimidin-7-yl}-5-(4-{[({3-fluorobicyclo[1.1.1]pentan-1-yl}methyl)amino]methyl}phenyl)cyclopentane-1,2-diol]: the concentration for half-maximal inhibition (IC50) in the assay on Caov-3 cells is 1880 nM; against METTL3/14, 9.11 nM; in the assay with KASUMI-1 cells (Homo sapiens, Kasumi 1, 120 h), 2390 nM.

In general, IC50 refers to the midpoint of a concentration-inhibition curve. Higher therefore signals weaker potency.
